Experimental data published in patent publication US9517244B2, “Therapeutic combinations for use in neoplasia” (University of Florida Research Foundation, Inc., priority 2011, dated 2016).
Like-named read-outs stand apart in the source and are kept apart here.

Assays:
Assay in all cases: MTT assay, pancreatic cancer cell line
Assay type in all cases: cell-based, human
Settings in all cases: 72 h
BxPC3 = test system: BxPC3
Mia-PaCa2 = test system: Mia-PaCa2
HPAC = test system: HPAC
PANC1 = test system: PANC1
AsPC1 = test system: AsPC1

Q: Which results are given for `[NH2][Pt]([NH2])([Cl])[Cl]` [CDDP, cisplatin]?
A: IC50 (BxPC3; BxPC3, NSC-30049 0 μM, 0.025 μM dFdC, read-out: IC50 of CDDP): 2020 ± 350 nM; IC50 (BxPC3; BxPC3, NSC-30049 0 μM, no dFdC, read-out: IC50 of CDDP): 1960 ± 80 nM; IC50 (BxPC3; BxPC3, NSC-30049 0.5 μM, 0.025 μM dFdC, read-out: IC50 of CDDP): 940 ± 60 nM; IC50 (BxPC3; BxPC3, NSC-30049 0.5 μM, no dFdC, read-out: IC50 of CDDP): 1530 ± 90 nM; IC50 (BxPC3; BxPC3, NSC-30049 1.0 μM, 0.025 μM dFdC, read-out: IC50 of CDDP): 540 ± 60 nM; IC50 (BxPC3; BxPC3, NSC-30049 1.0 μM, no dFdC, read-out: IC50 of CDDP): 1380 ± 40 nM; IC50 (BxPC3; BxPC3, NSC-30049 2.5 μM, 0.025 μM dFdC, read-out: IC50 of CDDP): 40 ± 1 nM; IC50 (BxPC3; BxPC3, NSC-30049 2.5 μM, no dFdC, read-out: IC50 of CDDP): 260 ± 70 nM; IC50 (Mia-PaCa2; Mia-PaCa2, NSC-30049 0 μM, 1 μM dFdC, read-out: IC50 of CDDP): 22.2 ± 1.15 µM; IC50 (Mia-PaCa2; Mia-PaCa2, NSC-30049 0 μM, no dFdC, read-out: IC50 of CDDP): 22.3 ± 1.1 µM; IC50 (Mia-PaCa2; Mia-PaCa2, NSC-30049 0.5 μM, 1 μM dFdC, read-out: IC50 of CDDP): 0.09 µM; IC50 (Mia-PaCa2; Mia-PaCa2, NSC-30049 0.5 μM, no dFdC, read-out: IC50 of CDDP): 14.3 ± 0.49 µM; IC50 (Mia-PaCa2; Mia-PaCa2, NSC-30049 1.0 μM, 1 μM dFdC, read-out: IC50 of CDDP): 0.07 µM; IC50 (Mia-PaCa2; Mia-PaCa2, NSC-30049 1.0 μM, no dFdC, read-out: IC50 of CDDP): 13.4 ± 1.33 µM; IC50 (Mia-PaCa2; Mia-PaCa2, NSC-30049 2.5 μM, 1 μM dFdC, read-out: IC50 of CDDP): 0.07 µM; IC50 (Mia-PaCa2; Mia-PaCa2, NSC-30049 2.5 μM, no dFdC, read-out: IC50 of CDDP): 12.2 ± 1.12 µM; IC50 (HPAC; HPAC, NSC-30049 0 μM, 0.025 μM dFdC, read-out: IC50 of CDDP): 13.8 ± 5.51 µM; IC50 (HPAC; HPAC, NSC-30049 0 μM, no dFdC, read-out: IC50 of CDDP): 14.1 ± 4.34 µM; IC50 (HPAC; HPAC, NSC-30049 0.5 μM, 0.025 μM dFdC, read-out: IC50 of CDDP): 0.02 ± 0.01 µM; IC50 (HPAC; HPAC, NSC-30049 0.5 μM, no dFdC, read-out: IC50 of CDDP): 14.5 ± 2.47 µM; IC50 (HPAC; HPAC, NSC-30049 1.0 μM, 0.025 μM dFdC, read-out: IC50 of CDDP): 0.01 ± 0.001 µM; IC50 (HPAC; HPAC, NSC-30049 1.0 μM, no dFdC, read-out: IC50 of CDDP): 11.6 ± 1.82 µM; IC50 (HPAC; HPAC, NSC-30049 2.5 μM, 0.025 μM dFdC, read-out: IC50 of CDDP): 0.01 ± 0.001 µM; IC50 (HPAC; HPAC, NSC-30049 2.5 μM, no dFdC, read-out: IC50 of CDDP): 4.71 ± 1.24 µM; IC50 (PANC1; PANC1, NSC-30049 0 μM, 1 μM dFdC, read-out: IC50 of CDDP): 9.87 ± 0.8 µM; IC50 (PANC1; PANC1, NSC-30049 0 μM, no dFdC, read-out: IC50 of CDDP): 9.55 ± 0.94 µM; IC50 (PANC1; PANC1, NSC-30049 0.5 μM, 1 μM dFdC, read-out: IC50 of CDDP): 1.06 ± 0.39 µM; IC50 (PANC1; PANC1, NSC-30049 0.5 μM, no dFdC, read-out: IC50 of CDDP): 9 ± 0.03 µM; IC50 (PANC1; PANC1, NSC-30049 1.0 μM, 1 μM dFdC, read-out: IC50 of CDDP): 1.03 ± 0.36 µM; IC50 (PANC1; PANC1, NSC-30049 1.0 μM, no dFdC, read-out: IC50 of CDDP): 7.8 ± 0.5 µM; IC50 (PANC1; PANC1, NSC-30049 2.5 μM, 1 μM dFdC, read-out: IC50 of CDDP): 0.12 ± 0.09 µM; IC50 (PANC1; PANC1, NSC-30049 2.5 μM, no dFdC, read-out: IC50 of CDDP): 2.04 ± 0.41 µM; IC50 (AsPC1; AsPC1, NSC-30049 0 μM, 1 μM dFdC, read-out: IC50 of CDDP): 3190 ± 280 nM; IC50 (AsPC1; AsPC1, NSC-30049 0 μM, no dFdC, read-out: IC50 of CDDP): 3490 ± 130 nM; IC50 (AsPC1; AsPC1, NSC-30049 0.5 μM, 1 μM dFdC, read-out: IC50 of CDDP): 640 ± 80 nM; IC50 (AsPC1; AsPC1, NSC-30049 0.5 μM, no dFdC, read-out: IC50 of CDDP): 2200 ± 220 nM; IC50 (AsPC1; AsPC1, NSC-30049 1.0 μM, 1 μM dFdC, read-out: IC50 of CDDP): 110 ± 90 nM; IC50 (AsPC1; AsPC1, NSC-30049 1.0 μM, no dFdC, read-out: IC50 of CDDP): 2090 ± 190 nM; IC50 (AsPC1; AsPC1, NSC-30049 2.5 μM, 1 μM dFdC, read-out: IC50 of CDDP): 4 ± 0.1 nM; IC50 (AsPC1; AsPC1, NSC-30049 2.5 μM, no dFdC, read-out: IC50 of CDDP): 200 ± 10 nM

Q: `Nc1ccn([C@@H]2O[C@H](CO)[C@@H](O)C2(F)F)c(=O)n1` [dFdC, gemcitabine] was tested. Which IC50 (BxPC3; Homo sapiens, BXPC-3, BxPC3 (dFdC-sensitive), single agent, read-out: IC50) did it give?
A: 70 ± 5 nM

Q: What about the IC50 (Mia-PaCa2; Homo sapiens, MIA PaCa-2, Mia-PaCa2 (dFdC-resistant), single agent, read-out: IC50) of the same compound?
A: 11.5 ± 2.9 µM

Q: And the IC50 (HPAC; Homo sapiens, HPAC (dFdC-sensitive), single agent, read-out: IC50)?
A: 0.07 ± 0.007 µM

Q: What about the IC50 (PANC1; Homo sapiens, PANC-1, PANC1 (dFdC-resistant), single agent, read-out: IC50) of the same compound?
A: 11.6 ± 2.93 µM

Q: What about the IC50 (AsPC1; Homo sapiens, AsPC1 (dFdC-resistant), single agent, read-out: IC50) of the same compound?
A: 1830 ± 470 nM
